Experimental data from patent publication US12697290B2, “Cosmetic compounds having two linked maleimide groups, cosmetic preparations, and method for treatment of keratin materials” (TARA BRANDS EUROPE S.L.U., priority 2022, dated 2026).

Assay: Thiol recombination: reaction of test compound with cysteine reagent, conversion into mono- and bis-Michael-addition products monitored by LC-MS
Conditions: 30° C.; for Conversion at 15 min, bis-Michael-addition product (bis) / Conversion at 15 min, mono-Michael-addition product (mono) / Conversion at 30 min, bis-Michael-addition product (bis) / Conversion at 30 min, mono-Michael-addition product (mono) / Conversion at 60 min, bis-Michael-addition product (bis) / Conversion at 60 min, mono-Michael-addition product (mono): test solution 1 (pH=5.4), 0.05M
Excerpt: N-Fmoc-cysteine (hereinafter C1) or N-Cbz-cysteine (hereinafter C2) were obtained by reduction of their cysteine counterparts via a literature known method. Adv. Syn. Catal., 2020, 362, 5093-5104. DOI: 10.1002/adsc.202000716. “OLAPLEX® No. 0 Intensive Bond Building Hair Treatment” is a commercially available product which comprises an active agent, water, phenoxyethanol and sodium benzoate. The active agent is hereinafter labelled “Olaplex active agent” or “reference compound #2”.
The compound to be tested (1 eq.) was dissolved in an aqueous media (0.02-0.05 M) and 4 eq. of cysteine reagent (N-Fmoc-cysteine (C1) or N-Cbz-cysteine (C2)) were added. Two test solutions were used as aqueous media: test solution 1 was a phosphate buffer (pH=5.4) with or without an emulsifier (e.g. Eumulgin) and test solution 2 was an aqueous solution containing 0.49% (w/w) sodium benzoate and 0.30% (w/w) citric acid with or without an emulsifier (e.g. Eumulgin).
To make the phosphate buffer a solution of 0.1-M solution of citric acid (use citric acid monohydrate) and a 0.2-M solution of Na2HPO4 (use Na2HPO4 or Na2HPO4*2H2O) were prepared and mixed with the following ratio: 44.25 mL/55.75 mL=mL 0.1M-citric acid/mL 0.2M Na2HPO4 to give a buffer solution with pH=5.4.
The tests were performed at ambient temperature of 30° C. under stirring with small magnetic stirrers in LC-MS vials or small glass vials (see picture 1). The reactions were performed under normal atmosphere. The reactions were monitored by LC-MS. The reaction scale was between 4 and 10 mg of tested compound. To calculate the conversion into products the ratio between cysteine reagent, mono-Michael-addition product (mono) and bis-Michael-addition product (bis) as shown in the following schemes were compared.

[1] = test solution 1 (pH=5.4)+1% eumulgin, 0.02M
[2] = test solution 1 (pH=5.4)+1% eumulgin, 0.02M, 60 min
[3] = test solution 1 (pH=5.4)+2.5% eumulgin, 0.02M
[4] = test solution 1 (pH=5.4)+2.5% eumulgin, 0.02M, 60 min
[5] = test solution 2+1% Eumulgin, 0.02M
[6] = test solution 2+1% Eumulgin, 0.02M, 60 min

SMILES	Conversion at 15 min, bis-Michael-addition product (bis)	Conversion at 15 min, mono-Michael-addition product (mono)	Conversion at 30 min, bis-Michael-addition product (bis)	Conversion at 30 min, mono-Michael-addition product (mono)	Conversion at 60 min, bis-Michael-addition product (bis) (60 min)	Conversion at 60 min, mono-Michael-addition product (mono) (60 min)	Conversion at 30 min, bis [1]	Conversion at 30 min, mono [1]	Conversion at 60 min, bis [2]	Conversion at 60 min, mono [2]	Conversion at 30 min, bis [3]	Conversion at 60 min, bis [4]	Conversion at 5 h, bis [3]	Conversion at 30 min, bis [5]	Conversion at 30 min, mono [5]	Conversion at 60 min, bis [6]	Conversion at 60 min, mono [6]	Conversion at 60 min, mono and bis (test solution 2+1% Eumulgin, 0.02M, 60 min, mono and bis together, peaks are not separated in LC-MS)
O=C1C=CC(=O)N1CCOCC12CC(COCCN3C(=O)C=CC3=O)(C1)C2 [SPC-TB-0002, 1,1′-(((bicyclo[1.1.1]pentane-1,3-diylbis(methylene))bis(oxy))bis(ethane-2,1-diyl))bis(1H-pyrrole-2,5-dione)]	17% bis	0% mono	11% bis	0% mono	10% bis	0% mono												
O=C1C=CC(=O)N1CCCOCC12CC(COCCCN3C(=O)C=CC3=O)(C1)C2 [SPC-TB-0001]	15% bis	0% mono	28% bis	0% mono	21% bis	0% mono												
O=C1C=CC(=O)N1CCCOCCOCCOCCCN1C(=O)C=CC1=O [Reference compound #1, reference compound]	9% bis	0% mono	10% bis	0% mono	22% bis	29% mono	50% bis	0% mono	60% bis	0% mono	97% bis	88% bis	82% bis	30% bis	30% mono	56% bis	9% mono	
O=C1C=CC(=O)N1CCCOCC12CCC(COCCCN3C(=O)C=CC3=O)(CC1)CC2 [SPC-TB-0003]	29% bis	9% mono	77% bis	10% mono														
O=C1C=CC(=O)N1CCOCCOCC12CC(COCCOCCN3C(=O)C=CC3=O)(C1)C2 [SPC-TB-0007, 1,1′-(((((bicyclo[1.1.1]pentane-1,3-diylbis(methylene))bis(oxy))bis(ethane-2,1-diyl))bis(oxy))bis(ethane-2,1-diyl))bis(1H-pyrrole-2,5-dione)]	24% bis	47% mono	22% bis	66% mono	50% bis	37% mono	53% bis	20% mono	67% bis	9% mono	79% bis	79% bis	73% bis	26% bis	26% mono	44% bis	10% mono	
O=C1C=CC(=O)N1CCOCCOCCOCC12CC(COCCOCCOCCN3C(=O)C=CC3=O)(C1)C2 [SPC-TB-0013]							67% bis	16% mono	66% bis	15% mono	57% bis	57% bis	46% bis	36% bis	10% mono			50% mono and bis*
